Values of other authors as cited in US20220339295A1, “FULLERENE GALLIUM P[…] METHODS” (Exothule Inc., priority 2020, published 2022).

Legend:
[1] = target: transferrin (Homo sapiens, UniProt P02787); settings: relative to Fe3+
Sequence of transferrin (P02787 20-698, species assumed): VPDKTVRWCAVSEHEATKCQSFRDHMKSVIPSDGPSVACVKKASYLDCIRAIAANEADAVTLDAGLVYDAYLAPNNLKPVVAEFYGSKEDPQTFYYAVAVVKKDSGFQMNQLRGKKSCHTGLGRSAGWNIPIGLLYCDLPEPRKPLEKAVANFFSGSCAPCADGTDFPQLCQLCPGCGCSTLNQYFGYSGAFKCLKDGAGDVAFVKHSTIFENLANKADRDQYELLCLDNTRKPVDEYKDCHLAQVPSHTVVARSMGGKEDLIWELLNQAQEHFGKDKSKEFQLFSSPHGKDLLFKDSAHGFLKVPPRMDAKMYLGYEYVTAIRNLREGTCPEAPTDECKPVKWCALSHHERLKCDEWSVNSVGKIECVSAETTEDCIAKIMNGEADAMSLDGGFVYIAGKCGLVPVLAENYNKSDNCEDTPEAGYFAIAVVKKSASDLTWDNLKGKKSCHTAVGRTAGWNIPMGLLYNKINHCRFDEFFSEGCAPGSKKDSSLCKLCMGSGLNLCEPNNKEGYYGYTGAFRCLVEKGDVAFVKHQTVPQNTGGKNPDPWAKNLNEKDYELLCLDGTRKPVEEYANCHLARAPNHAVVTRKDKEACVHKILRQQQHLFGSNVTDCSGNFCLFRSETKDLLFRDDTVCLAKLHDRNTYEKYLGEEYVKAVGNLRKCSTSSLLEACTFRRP

Compound: [Ga] [gallium]
- binding in transferrin, times less effectively than Fe3+ [1]: 300 times
- gallium excreted in urine (after 24 hours): 69%
- gallium excreted (in 48 hours): 91%
